Legend:
[1] = system: SF-295; test: cells; type: cell-based; conditions: Homo sapiens
[2] = system: murine keratinocyte cell line PE; test: growth inhibition of PE cells (MTT assay); type: cell-based; conditions: 100 nanomolar
Protocol: To determine the inhibitory effect of the compositions of the present invention on cell proliferation, screening assays were performed on a murine keratinocyte cell line PE. Cell line PE was chosen for its particular sensitivity to the induction of ornithine decarboxylase (ODC) activity by the extensively characterized tumor promoter TPA. […] PE cell culture medium consisted of Eagle's minimal essential medium without calcium chloride (Whittaker Bioproducts, Walkersville, Mass.) supplemented with 8% chelexed fetal calf serum and 1% antibiotic-antimycotic (Gibco BRL) and the addition of CaCl2 to 0.05 mM Ca^++.
Growth Inhibition. Growth curves, shown in FIGS. 1 and 2, for PE cells treated with calcitriol and the C-10 carbon-substituted dimers 21, 22, 26, 27, and 28 generated by assay for the reduction of the tetrazolium-based compound MTT, see Charmichael, et al., Cancer Res., 47:936-942 (1987). […] PE cells were seeded at a density of 5,000 cells/well in 50 μL of medium into 96-well microtiter plates. Twelve hours later, the medium was removed, and cells were treated with 100 μL of fresh medium into which the appropriate amount of calcitrol or analog dissolved in dimethyl sulfoxide (DMSO) had been added, with the concentration of DMSO held constant at 0.1%. […] At 24-hour intervals following the initial treatment of the cells with compounds, 0.1 mg (50 μL of a 2 mg/mL solution) of MTT was added to each well. After 4 hours, the MTT was removed and DMSO added to dissolve the blue formazan dye. Using a microtiter plate reader, the A505 was then determined and cell number calculated from blank-subtracted absorbance values.

[3] = system: HL-60(TB); test: cells; conditions: Homo sapiens
[4] = system: 60 cell line panel; conditions: cell line panels of 60 lines; cited from earlier work
[5] = system: P388 leukemia; conditions: NCI Report on NSC 369397; cited from earlier work
[6] = system: P. vivax and P. falciparum; conditions: cited from earlier work
[7] = system: P. falciparum; conditions: Camp (chloroquine-susceptible) and Smith (chloroquine-resistant) strains; cited from earlier work
[8] = cited from earlier work

| SMILES | GI50 ([1]; read-out: Log10 GI50 (converted)) [µM] | CC50 ([1]; read-out: Log10 LC50 (converted)) [µM] | IC (TGI) ([1]; read-out: Log10 TGI (converted)) [µM] | antiproliferative activity compared with calcitriol [2] | GI50 ([3]; HL-60, read-out: Log10 GI50 (converted)) [µM] | CC50 ([3]; HL-60, read-out: Log10 LC50 (converted)) [µM] | IC (TGI) ([3]; HL-60, read-out: Log10 TGI) [µM] | anticancer activity [4] | activity against P388 leukemia [5] | clinical cure ([6]; 2099 cases, P. vivax and P. falciparum about 3:1) | suppression of parasitemias ([6]; P. vivax and P. falciparum) | potency in vitro compared with mefloquine [7] | solubility in water [8] |
| --- | --- | --- | --- | --- | --- | --- | --- | --- | --- | --- | --- | --- | --- |
| C[C@H]1[C@@H](CC(=O)c2ccc(C(=O)C[C@H]3O[C@@H]4O[C@@]5(C)CC[C@H]6[C@H](C)CC[C@@H]([C@H]3C)[C@@]46OO5)cc2)O[C@@H]2O[C@@]3(C)CC[C@H]4[C@H](C)CC[C@@H]1[C@@]24OO3 [Dimer 21] | 4.79 | 77.6 | 25.1 | at least as antiproliferative as calcitrol |  |  |  |  |  |  |  |  |  |
| C[C@@H]1CC[C@H]2[C@@H](C)C(=O)O[C@@H]3O[C@@]4(C)CC[C@@H]1[C@]32OO4 [Artemisinin] |  |  |  |  | 55 | > 100 | 100 | very little anticancer activity | inactive | clinical cure of all patients | effective at suppressing the parasitemias | comparable | insolubility in water |
